{
  "source": "patent US11000506B2",
  "about": "“Envenomation therapies and related pharmaceutical compositions, systems and kits” (OPHIREX, INC, priority 2014, dated 2021)",
  "key": {"M. fulvius venom PLA2": {"system": "M. fulvius venom PLA2", "assay": "HTS for inhibitors of M. fulvius venom PLA2", "type": "biochemical", "details": "compounds approximately 10 μM/well"}, "E. carinatus venom MP": {"system": "E. carinatus venom MP", "assay": "HTS for inhibitors of E. carinatus venom MP", "type": "biochemical", "details": "compounds approximately 10 μM/well", "method": "(§1) Background. Phospholipase A2 (PLA2) catalyzes the hydrolysis of phospholipids at the sn-2 position yielding a free fatty acid and a lysophospholipid. The release of arachidonic acid from membrane phospholipids by PLA is believed to be a key step in the control of eicosanoid production within the cell. The Bee Venom PLA2 Control was a 100 μg/ml solution of bee venom PLA2 is supplied as a positive control in the kit (Abcam kit catalog number ab133089). Substrate for MP was DQ Gelatin and assay run per EnzChek gelatinase assay manufacturers instructions. Venom MP activity was not optimized in initial experiments, but reaction rates were during experiments performed by an independently contracted laboratory. SP assay was performed using Nα-Benzoyl-L-arginine-7-amido-4-methylcoumarin hydrochloride. These kits were stored as specified if stored at −20° C. Unless otherwise specified, in the case of my experiments, only crude, unfractionated lyophilized venom purchased from Sigma or the Miami Serpentarium were used. Plate Setup: Manufacturers guidelines (paraphrased herein) were followed unless otherwise specified. Data Analysis: xcel per manufacturers recommendations. MP and SP assays were prepared and plated in the same manner as PLA2 assays except substrates and fluorophores were different. PBS was the buffer in the case of MP and SP assays and absorbance measured at 495 nm. Substrate for MP was DQ Gelatin and assay run per EnzChek gelatinase assay manufacturers instructions except that experiments were run, unconventionally at 37 C to estimate human body temperature and initial experiments for PLA2, MP activity and SP activity were not optimized for screening (e.g. extremely high doses of venom were used—10 mg/mL stock in all cases since the quality of the venom was unknown with final concentration of 0.444 mg/mL in the test wells). SP assay was performed using Na-Benzoyl-L-arginine-7-amido-4-methylcoumarin hydrochloride (Sigma). Specifics of contract laboratory technique vary from the present inventor's initial experiments in terms of venom and substrate optimization, plate size (384 instead of 96), volume and temperature and other factors including different operators such as those described immediately below, performed following the first pilot experiments and subsequently extended by a contract laboratory.\n(§2) Small molecule screening and dose-response experiments took place in the Yale Center for Molecular Discovery. Instrumentation used when indicated included Tecan EVO (2), Tecan Aquarius, Matrix PlateMatePlus (2), Matrix PlateMate2×2 liquid transfer robots and Titertek and Thermo Multidrop liquid dispensers (7). PerkinElmer EnVision (3) and Tecan infinite M1000 (2) plate readers sensitively measure absorbance, fluorescence, fluorescence polarization and luminescence in 96- and 384-well plate formats. A GE InCell Analyzer 2200 imaging system acquires multicolor fluorescent and transmitted light images from plates. Piloting collections used in the first phases of screening were selected by the inventor or from libraries of known compounds and natural products available at the time of experiments on selected venoms including: NCC, GenPlus, Pharmakon, Bioactive lipids, Protease Inhibitors, Procured Drugs and FDA Approved Drugs libraries. The GenPlus (the NINDS Custom Collection) from MicroSource Discovery Systems contains 960 compounds. […]"}, "C. atrox venom MP": {"system": "C. atrox venom MP", "assay": "HTS for inhibitors of C. Atrox venom MP", "type": "biochemical", "details": "for percental (%) reduction of MP activity: compounds approximately 10 μM/well", "method": "as §1, §2"}, "bee venom PLA2": {"biological_target": "bee venom PLA2 (Apis mellifera, UniProt P00630)", "sequence (P00630 34-167 limits assumed)": "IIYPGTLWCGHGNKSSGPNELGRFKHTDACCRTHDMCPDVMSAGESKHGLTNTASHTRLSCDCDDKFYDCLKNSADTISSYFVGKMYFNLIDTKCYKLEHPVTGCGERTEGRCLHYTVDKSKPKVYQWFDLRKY", "type": "biochemical"}, "snake venom PLA2": {"system": "snake venom PLA2", "type": "biochemical", "method": "Background. Phospholipase A2 (PLA2) catalyzes the hydrolysis of phospholipids at the sn-2 position yielding a free fatty acid and a lysophospholipid. The release of arachidonic acid from membrane phospholipids by PLA is believed to be a key step in the control of eicosanoid production within the cell. The Bee Venom PLA2 Control was a 100 μg/ml solution of bee venom PLA2 is supplied as a positive control in the kit (Abcam kit catalog number ab133089). Substrate for MP was DQ Gelatin and assay run per EnzChek gelatinase assay manufacturers instructions. Venom MP activity was not optimized in initial experiments, but reaction rates were during experiments performed by an independently contracted laboratory. SP assay was performed using Nα-Benzoyl-L-arginine-7-amido-4-methylcoumarin hydrochloride. These kits were stored as specified if stored at −20° C. Unless otherwise specified, in the case of my experiments, only crude, unfractionated lyophilized venom purchased from Sigma or the Miami Serpentarium were used. Plate Setup: Manufacturers guidelines (paraphrased herein) were followed unless otherwise specified. Data Analysis: xcel per manufacturers recommendations. MP and SP assays were prepared and plated in the same manner as PLA2 assays except substrates and fluorophores were different. PBS was the buffer in the case of MP and SP assays and absorbance measured at 495 nm. […]\nSmall molecule screening and dose-response experiments took place in the Yale Center for Molecular Discovery. […] PerkinElmer EnVision (3) and Tecan infinite M1000 (2) plate readers sensitively measure absorbance, fluorescence, fluorescence polarization and luminescence in 96- and 384-well plate formats. […]"}, "[1]": {"system": "snake venom serine proteases", "assay": "serine protease activity with excess venom (FIG. 3)", "type": "biochemical", "details": "100 um; venom 0.444 mg/mL; compared to marimastat and batimastat", "description": "Substrate for MP was DQ Gelatin and assay run per EnzChek gelatinase assay manufacturers instructions. Venom MP activity was not optimized in initial experiments, but reaction rates were during experiments performed by an independently contracted laboratory. SP assay was performed using Nα-Benzoyl-L-arginine-7-amido-4-methylcoumarin hydrochloride. […] Unless otherwise specified, in the case of my experiments, only crude, unfractionated lyophilized venom purchased from Sigma or the Miami Serpentarium were used. Plate Setup: Manufacturers guidelines (paraphrased herein) were followed unless otherwise specified. Data Analysis: xcel per manufacturers recommendations. MP and SP assays were prepared and plated in the same manner as PLA2 assays except substrates and fluorophores were different. PBS was the buffer in the case of MP and SP assays and absorbance measured at 495 nm. Substrate for MP was DQ Gelatin and assay run per EnzChek gelatinase assay manufacturers instructions except that experiments were run, unconventionally at 37 C to estimate human body temperature and initial experiments for PLA2, MP activity and SP activity were not optimized for screening (e.g. extremely high doses of venom were used—10 mg/mL stock in all cases since the quality of the venom was unknown with final concentration of 0.444 mg/mL in the test wells). […]"}, "M. fulvius venom": {"system": "M. fulvius venom", "assay": "protection of mice from M. fulvius venom (FIG. 6A-D)", "type": "in vivo", "details": "methylvarespladib fed ad libitum in biscuits, high-dose venom ~5 hours later; N=2", "method": "Mice received SC injections of M. fulvius venom at ^˜4 times the expected LD50 (typically estimated to be 1.3 mg/kg SC) (0.1 mg M. fulvius venom/animal for approximate dose of ^˜4 mg/kg). Prior to venom injection animals received either total dose 0.1 mg varespladib exipient (sham treatment) by SC route for calculated concentration of 4 mg/kg varespladib ^˜10-15 minutes before venom administration. Surviving animals were euthanized by CO2 inhalation at the end of experiments and observations periods ranging from ^˜12 hours to as long as 30 hours (survival being designated at 24 hours). […] In mice: Varespladib 4-8 mg/kg subcutaneously or orally with methylvarespladib, taken ad libitum. In rats, varespladib or excipient was administered intravenously at 30 seconds or 5 minutes following subcutaneous administration of venom at 4 or 8 mg/kg. Blood sampling and assay for sPLA2 activity was performed with samples taken from a surgically implanted jugular venous catheter at precise intervals (baseline, 30 minutes, 1 hour and 4 hours).\n6B Mice fed methylvarespladib or exipient ad libitum in biscuits had high-dose M. fulvius venom administered ^˜5 hours after introduction of the biscuits (N=2 each group). […] 6C Venom and varespladib (4 mg/kg) or venom and excipient were mixed just prior to administration and injected subcutaneously. At 5 hours (300 minutes, down-pointing arrow), surviving animals were retreated with ½ dose varespladib (2 mg/kg) or excipient. […] Mice either received venom and sham/excipient (N=7), methylvarespladib (N=3) or varespladib (N=7) ^˜30 seconds to 1.5 minute following venom administration. […] Confirmatory experiments and results of 6E-H were performed in rats by a contract laboratory to assess expand knowledge of varespladib's capacity to act in therapeutic mode and see if the effects of intravenous administration were similar to subcutaneous administration. 6E and 6F M. fulvius venom was administered subcutaneously (4 mg/kg or 8 mg/kg) and then excipient or varespladib 8 mg/kg was administered at 30 seconds or 5 minutes after envenomation."}, "Daboia russelli venom MP": {"system": "Daboia russelli venom MP", "assay": "metalloproteinase activity over time, Daboia russelli venom (FIG. 2B)", "type": "biochemical", "details": "100 uM; venom 0.444 mg/mL", "description": "Substrate for MP was DQ Gelatin and assay run per EnzChek gelatinase assay manufacturers instructions. Venom MP activity was not optimized in initial experiments, but reaction rates were during experiments performed by an independently contracted laboratory. […] These kits were stored as specified if stored at −20° C. Unless otherwise specified, in the case of my experiments, only crude, unfractionated lyophilized venom purchased from Sigma or the Miami Serpentarium were used. Plate Setup: Manufacturers guidelines (paraphrased herein) were followed unless otherwise specified. Data Analysis: xcel per manufacturers recommendations. MP and SP assays were prepared and plated in the same manner as PLA2 assays except substrates and fluorophores were different. PBS was the buffer in the case of MP and SP assays and absorbance measured at 495 nm. Substrate for MP was DQ Gelatin and assay run per EnzChek gelatinase assay manufacturers instructions except that experiments were run, unconventionally at 37 C to estimate human body temperature and initial experiments for PLA2, MP activity and SP activity were not optimized for screening (e.g. extremely high doses of venom were used—10 mg/mL stock in all cases since the quality of the venom was unknown with final concentration of 0.444 mg/mL in the test wells). […]"}, "[2]": {"system": "snake venom metalloproteinase", "assay": "time course of metalloproteinase activity with excess venom (FIG. 2A)", "type": "biochemical", "details": "inhibitors 100 uM; venom 0.444 mg/mL", "description": "Substrate for MP was DQ Gelatin and assay run per EnzChek gelatinase assay manufacturers instructions. Venom MP activity was not optimized in initial experiments, but reaction rates were during experiments performed by an independently contracted laboratory. SP assay was performed using Nα-Benzoyl-L-arginine-7-amido-4-methylcoumarin hydrochloride. […] Unless otherwise specified, in the case of my experiments, only crude, unfractionated lyophilized venom purchased from Sigma or the Miami Serpentarium were used. Plate Setup: Manufacturers guidelines (paraphrased herein) were followed unless otherwise specified. Data Analysis: xcel per manufacturers recommendations. MP and SP assays were prepared and plated in the same manner as PLA2 assays except substrates and fluorophores were different. PBS was the buffer in the case of MP and SP assays and absorbance measured at 495 nm. Substrate for MP was DQ Gelatin and assay run per EnzChek gelatinase assay manufacturers instructions except that experiments were run, unconventionally at 37 C to estimate human body temperature and initial experiments for PLA2, MP activity and SP activity were not optimized for screening (e.g. extremely high doses of venom were used—10 mg/mL stock in all cases since the quality of the venom was unknown with final concentration of 0.444 mg/mL in the test wells). SP assay was performed using Na-Benzoyl-L-arginine-7-amido-4-methylcoumarin hydrochloride (Sigma). Specifics of contract laboratory technique vary from the present inventor's initial experiments in terms of venom and substrate optimization, plate size (384 instead of 96), volume and temperature and other factors including different operators such as those described immediately below, performed following the first pilot experiments and subsequently extended by a contract laboratory.\nScreening was carried out for inhibitors of venom sPLA2, MP and SPs. Stock solutions of venom at 10 mg/mL were used without typical dilution for assaying various inhibitors of sPLA2, MP and SPs. The final venom concentration in the assays was very high at 0.444 mg/mL."}, "[3]": {"biological_target": "snake venom metalloproteinase", "assay": "IC50 for MP inhibition on various venoms (Table 8, FIG. 20)", "type": "biochemical", "details": "general statement; values only in figures"}},
  "note": "“Also recorded” adds a separate entry of the source. Where a SMILES comes first, the peptide text is derived from it.",
  "data": [
    {"molecule": "Cc1ccc(C(=O)Nc2ccc(S(=O)(=O)O)c3cc(S(=O)(=O)O)cc(S(=O)(=O)O)c23)cc1NC(=O)c1cccc(NC(=O)Nc2cccc(C(=O)Nc3cc(C(=O)Nc4ccc(S(=O)(=O)O)c5cc(S(=O)(=O)O)cc(S(=O)(=O)O)c45)ccc3C)c2)c1", "note": "[Suramin]", "values": [
      {"measurement": "% effect (% inhibition) on M. fulvius venom PLA2", "setting": "M. fulvius venom PLA2", "value": 21, "unit": "%"}
    ]},
    {"molecule": "Ceramide", "values": [
      {"measurement": "% effect (% inhibition) on M. fulvius venom PLA2", "setting": "M. fulvius venom PLA2", "value": 43, "unit": "%"}
    ]},
    {"molecule": "NC[C@H](O)c1ccc(O)c(O)c1", "note": "[Norepinephrine]", "values": [
      {"measurement": "% Effect on E. carinatus venom MP", "setting": "E. carinatus venom MP", "value": 28, "unit": "%"}
    ]},
    {"molecule": "COc1ccc(S(=O)(=O)N(Cc2cccnc2)[C@@H](C(=O)NO)C(C)C)cc1", "note": "[CGS 27023]", "values": [
      {"measurement": "percental (%) reduction of MP activity", "setting": "C. atrox venom MP", "value": "> 95", "unit": "%"}
    ]},
    {"molecule": "CCCCN1CCCCC1C(=O)Nc1c(C)cccc1C", "note": "(stereo not drawn) [bupvicaine]", "values": [
      {"measurement": "% Effect on E. carinatus venom MP", "setting": "E. carinatus venom MP", "value": "> 10", "unit": "%"}
    ]},
    {"molecule": "CCN(CC)CCN(Cc1ccc(-c2ccc(C(F)(F)F)cc2)cc1)C(=O)Cn1c(SCc2ccc(F)cc2)nc(=O)c2c1CCC2", "note": "[darapladib]", "values": [
      {"measurement": "inhibition of bee venom PLA2", "setting": "bee venom PLA2", "value": "not inhibited"}
    ]},
    {"molecule": "CCc1c(C(=O)C(N)=O)c2c(OCC(=O)OC)cccc2n1Cc1ccccc1", "note": "[methylvarespladib]", "values": [
      {"measurement": "inhibition of bee venom PLA2", "setting": "bee venom PLA2", "value": "only a modest effect"},
      {"measurement": "inhibition of snake venom PLA2 in vitro", "setting": "snake venom PLA2", "value": "inhibited the measured sPLA2 activity of several medically important snake venoms"},
      {"measurement": "inhibitory effects on snake venom serine proteases", "setting": "[1]", "value": "unexpected inhibitory effects"},
      {"measurement": "signs or symptoms of envenomation / protection from the effects of the venom", "setting": "M. fulvius venom", "value": "complete protection; also recorded: Neither treated mouse exhibited any signs or symptoms of envenomation"}
    ]},
    {"molecule": "CNC(=O)[C@@H](NC(=O)[C@H](CC(C)C)[C@H](O)C(=O)NO)C(C)(C)C", "note": "[marimastat]", "values": [
      {"measurement": "inhibition of Daboia russelli venom MP over time", "setting": "Daboia russelli venom MP", "value": "comparable inhibition"},
      {"measurement": "inhibition of metalloproteinase activity (time course)", "setting": "[2]", "value": "most consistently showing significant inhibition"}
    ]},
    {"molecule": "CCN(CC)CC(=O)Nc1c(C)cccc1C", "note": "[Lidocaine]", "values": [
      {"measurement": "% effect (% inhibition) on M. fulvius venom PLA2", "setting": "M. fulvius venom PLA2", "value": 11, "unit": "%"}
    ]},
    {"molecule": "CCOC(=O)c1ccc(OC(=O)CCCCCNC(=N)N)cc1", "note": "[gabexate, ethyl-p[6-guanidinohexanoyloxy]-benzoate methansulfonate]", "values": [
      {"measurement": "IC50s on various venoms", "setting": "[3]", "value": "micromolar range"},
      {"measurement": "% Effect on E. carinatus venom MP", "setting": "E. carinatus venom MP", "value": 23, "unit": "%"},
      {"measurement": "MP inhibition (in words)", "setting": "C. atrox venom MP", "value": "MP inhibition was seen"}
    ]},
    {"molecule": "CC(=O)N[C@@H](CS)C(=O)O", "note": "[NAC, N-Acetyl Cysteine]", "values": [
      {"measurement": "inhibition of metalloproteinase activity (time course)", "setting": "[2]", "value": "varying levels of MP inhibition"}
    ]},
    {"molecule": "COC(=O)[C@H](Cc1ccccc1)NC(=O)[C@@H](N)CC(=O)O", "note": "[Aspartame] (H-Asp-Phe-OMe)", "values": [
      {"measurement": "% Effect on E. carinatus venom MP", "setting": "E. carinatus venom MP", "value": 6, "unit": "%"},
      {"measurement": "percental (%) reduction of MP activity", "setting": "C. atrox venom MP", "value": 6.31, "unit": "%"}
    ]},
    {"molecule": "CCCCC[C@H](CC(=O)NO)C(=O)N[C@H](C(=O)N1CCC[C@H]1CO)C(C)C", "note": "[Actinonin]", "values": [
      {"measurement": "percental (%) reduction of MP activity", "setting": "C. atrox venom MP", "value": 92, "unit": "%"}
    ]},
    {"molecule": "O=C(CCCCCCC(=O)Nc1ccccc1)NO", "note": "[Vorinostat]", "values": [
      {"measurement": "percental (%) reduction of MP activity", "setting": "C. atrox venom MP", "value": 42, "unit": "%"}
    ]}
  ]
}
